In patent publication US3955959A, “Herbicide for use in transplanted rice” (priority 1974, dated 1976):

Experiments:
[1] = system: weeds in transplanted rice; experiment: Field tests / general herbicidal activity in transplanted rice; format: in vivo; conditions: field tests
[2] = system: weeds in ordinary transplanted rice; experiment: Example 4 field test, overall weed control; format: in vivo
From the text: (§1) Treatments were replicated four times.

[3] = system: Obw (other broadleaf weeds); experiment: Example 5 field test, weed control, JAAPR, Japan; format: in vivo; conditions: 1.5 kg/ha, 7 DAT
[4] = system: Mv (Monochoria vaginalis); experiment: Example 1 field test, weed control in transplanted rice, Iri, Korea; format: in vivo; conditions: av. of 36 and 63 DAT
From the text: (§2) In the field test 48 day-old seedlings (Watanabe variety) were transplanted to plots 2.5 × 6 m. seeded with the weed seeds indicated in Table 1. At 5 and 10 DAT periods, the herbicides were applied to the plants (now at the 1.2 and 2.0 leaf stage, respectively, of grass weed) at the indicated rate in kilograms per hectare (kg/ha). The weed control and rice injury results for 3 replications are reported in percentages as of the indicated times of observation. The percentages given in the "Perennials" column are based on the weight of the weeds at 63 DAT, i.e., 42 gms/3.6 m^2 for the weedy check.

Aj (Aneiliema japonica) = experiment: as above; format: in vivo; conditions: av. of 36 and 63 DAT
From the text: as §2

[5] = system: Eo (Echinochloa oryzicola); experiment: as above; format: in vivo; conditions: av. of 36 and 63 DAT
From the text: as §2

Ci (Cyperus iria) = experiment: as above; format: in vivo; conditions: av. of 36 and 63 DAT
From the text: as §2

[6] = system: Broadleaf: Mv, Sz (Monochoria vaginalis, Sphenoclea zeylanica); experiment: Example 3 field test on Dapog rice, weed control, Munoz, Philippines; format: in vivo, Monochoria vaginalis and Sphenoclea zeylanica; conditions: obs. 42 DAT
From the text: as §1

Dapog transplanted rice [7] = experiment: Example 3 field test, crop injury; conditions: obs. 42 DAT
Experimental: (§3) In the tests described in the tables below, the herbicides were formulated and used in granular form in conventional manner. […] The commercial herbicide used was a granular product having 5% active ingredient.
(§4) In the field tests of the herbicide of this invention with transplanted rice, the rice seedlings were grown in conventional manner, by seeding the rice in a typical seedbed of sandy loam to clay soil of the country wherein the test was conducted. For laboratory and greenhouse work the seedlings were obtained by seeding rice in a mixture of soil, e.g., Ray silt loam, and peat in wood flats. For purposes of testing the herbicides on younger rice seedlings (infant or Dapog) the rice was usually allowed to grow for 6-15 days before lifting for transplanting. Older (ordinary) rice plants were usually grown for a period of about 2-3 weeks, or as much as about 7 weeks before lifting. Since the period of growth is dependent upon climatic conditions, a better measure of when to transplant the rice seedling is the leaf stage of growth; for infant or Dapog rice the seedling is lifted at the 1.5-2 leaf stage of growth, and for ordinary seedlings at the 2.5-5 leaf stage. The seedlings were then transplanted to the test plots for evaluation of the herbicide for injury against weed species present with the transplanted rice. The herbicides were then applied to the growth medium of the weeds and transplant rice, either preemergent or postemergent with respect to the weeds and postemergent with respect to the transplanted rice. Application times are designated in the tables as "DAT", meaning "days after transplant". Application rates given in the tables refer to the amount of active ingredient used.
(§5) Eleven (11) day-old Dapog seedlings were transplanted and treated at 5 DAT and 14 DAT with Herbicides A and B. The plots were overseeded with Echinochloa crusgalli seeds at 2 kgs/ha prior to transplanting. Treatments were replicated four times.

[8] = system: transplanted rice (ordinary and infant seedlings); experiment: Example 5 field test, rice injury; conditions: 1.5 kg/ha, 7 DAT
Experimental: as §3, §4
The rice seedlings were grown to the 1.7 leaf stage for infant seedlings and to the 5.5 leaf stage for ordinary seedlings. Two days after puddling the soil in which the seedlings were to be transplanted, both infant and ordinary seedlings were transplanted into plots 8.5 m^2.
The weed symbol "Obw" represents "other broadleaf weeds" of unspecified identity. Results presented in Table 5 represent the average of 2 replications.

[9] = system: Grass: Ec and Ecol (Echinochloa crusgalli, Echinochloa colonum); experiment: Example 4 field test on ordinary rice, weed control, Munoz, Philippines; format: in vivo; conditions: obs. 36 DAT
From the text: as §1

[10] = system: Sedges: Cd, Ci, Fl (Cyperus difformis, Cyperus iria, Fimbristylis littoralis); experiment: as above; format: in vivo; conditions: obs. 36 DAT
From the text: as §1

Dapog transplanted rice [11] = experiment: Example 3 field test, rice yield; format: in vivo
Experimental: as §3, §4, §5

CCCCOCN(C(=O)CCl)c1c(CC)cccc1CC [Herbicide B, n-(butoxymethyl)-2',6'-diethyl-2-chloroacetanilide, reference compound]
latest/optimum application stage of weeds [1]: 1 leaf stage | control of all weeds ([2]; 5 DAT): complete control of all weeds | weed control in words ([2]; 14 DAT, 1.0 and 1.5 kgs/ha): nil | weed control ([2]; 14 DAT, 3.0 kgs/ha): 50% | control of Obw in words [3]: complete control | % Weed Control (Obw) ([3]; infant seedlings): 100% | % Weed Control (Obw) ([3]; ordinary seedlings): 71% | % Weed Control (Mv) ([4]; 5 DAT, 1.0 kg/ha): 43% | % Weed Control (Mv) ([4]; 5 DAT, 1.5 kg/ha): 55% | % Weed Control (Mv) ([4]; 5 DAT, 3.0 kg/ha): 70% | % Weed Control (Mv) ([4]; 10 DAT, 1.0 kg/ha): 58% | % Weed Control (Mv) ([4]; 10 DAT, 1.5 kg/ha): 75% | % Weed Control (Mv) ([4]; 10 DAT, 3.0 kg/ha): 69% | % Weed Control (Aj) (Aj (Aneiliema japonica); 5 DAT, 1.0 kg/ha): 79% | % Weed Control (Aj) (Aj (Aneiliema japonica); 5 DAT, 1.5 kg/ha): 76% | % Weed Control (Aj) (Aj (Aneiliema japonica); 5 DAT, 3.0 kg/ha): 85% | % Weed Control (Aj) (Aj (Aneiliema japonica); 10 DAT, 1.0 kg/ha): 58% | % Weed Control (Aj) (Aj (Aneiliema japonica); 10 DAT, 1.5 kg/ha): 77% | % Weed Control (Aj) (Aj (Aneiliema japonica); 10 DAT, 3.0 kg/ha): 78% | % Weed Control (Eo) ([5]; 5 DAT, 1.0 kg/ha): 64% | % Weed Control (Eo) ([5]; 5 DAT, 1.5 kg/ha): 89% | % Weed Control (Eo) ([5]; 5 DAT, 3.0 kg/ha): 92% | % Weed Control (Eo) ([5]; 10 DAT, 1.0 kg/ha): 68% | % Weed Control (Eo) ([5]; 10 DAT, 1.5 kg/ha): 83% | % Weed Control (Eo) ([5]; 10 DAT, 3.0 kg/ha): 77% | % Weed Control (Ci) (Ci (Cyperus iria); 5 DAT, 1.0 kg/ha): 98% | % Weed Control (Ci) (Ci (Cyperus iria); 5 DAT, 1.5 kg/ha): 97% | % Weed Control (Ci) (Ci (Cyperus iria); 5 DAT, 3.0 kg/ha): 99% | % Weed Control (Ci) (Ci (Cyperus iria); 10 DAT, 1.0 kg/ha): 54% | % Weed Control (Ci) (Ci (Cyperus iria); 10 DAT, 1.5 kg/ha): 100% | % Weed Control (Ci) (Ci (Cyperus iria); 10 DAT, 3.0 kg/ha): 93% | % Weed control, Broadleaf (Mv,Sz) ([6]; 5 DAT, 1.0 kg/ha): 100% | % Weed control, Broadleaf (Mv,Sz) ([6]; 5 DAT, 1.5 kg/ha): 100% | % Weed control, Broadleaf (Mv,Sz) ([6]; 5 DAT, 3.0 kg/ha): 100% | % Weed control, Broadleaf (Mv,Sz) ([6]; 14 DAT, 1.0 kg/ha): 0% | % Weed control, Broadleaf (Mv,Sz) ([6]; 14 DAT, 1.5 kg/ha): 0% | % Weed control, Broadleaf (Mv,Sz) ([6]; 14 DAT, 3.0 kg/ha): 70% | Crop Injury (%) (Dapog transplanted rice [7]; 5 DAT, 1.0 kg/ha): 0% | Crop Injury (%) (Dapog transplanted rice [7]; 5 DAT, 1.5 kg/ha): 0% | Crop Injury (%) (Dapog transplanted rice [7]; 5 DAT, 3.0 kg/ha): 0% | Crop Injury (%) (Dapog transplanted rice [7]; 14 DAT, 1.0 kg/ha): 0% | Crop Injury (%) (Dapog transplanted rice [7]; 14 DAT, 1.5 kg/ha): 0% | Crop Injury (%) (Dapog transplanted rice [7]; 14 DAT, 3.0 kg/ha): 0% | Injury ([8]; infant seedlings): 10 | Injury ([8]; ordinary seedlings): 5 | % Weed control, Grass (Ec and Ecol) ([9]; 5 DAT, 1.0 kg/ha): 100% | % Weed control, Grass (Ec and Ecol) ([9]; 5 DAT, 1.5 kg/ha): 100% | % Weed control, Grass (Ec and Ecol) ([9]; 5 DAT, 3.0 kg/ha): 100% | % Weed control, Grass (Ec and Ecol) ([9]; 14 DAT, 1.0 kg/ha): 0% | % Weed control, Grass (Ec and Ecol) ([9]; 14 DAT, 1.5 kg/ha): 0% | % Weed control, Grass (Ec and Ecol) ([9]; 14 DAT, 3.0 kg/ha): 50% | % Weed control, Sedges (Cd, Ci, Fl) ([10]; 5 DAT, 1.0 kg/ha): 100% | % Weed control, Sedges (Cd, Ci, Fl) ([10]; 5 DAT, 1.5 kg/ha): 100% | % Weed control, Sedges (Cd, Ci, Fl) ([10]; 5 DAT, 3.0 kg/ha): 100% | % Weed control, Sedges (Cd, Ci, Fl) ([10]; 14 DAT, 1.0 kg/ha): 0% | % Weed control, Sedges (Cd, Ci, Fl) ([10]; 14 DAT, 1.5 kg/ha): 0% | % Weed control, Sedges (Cd, Ci, Fl) ([10]; 14 DAT, 3.0 kg/ha): 50% | yield vs control (Dapog transplanted rice [11]; 1 kg/ha, 5 DAT): significantly higher than the control | Yield (% of H.W. Check) (Dapog transplanted rice [11]; 5 DAT, 1.0 kg/ha): 142% | Yield (% of H.W. Check) (Dapog transplanted rice [11]; 5 DAT, 1.5 kg/ha): 107% | Yield (% of H.W. Check) (Dapog transplanted rice [11]; 5 DAT, 3.0 kg/ha): 101% | Yield (% of H.W. Check) (Dapog transplanted rice [11]; 14 DAT, 1.0 kg/ha): 83% | Yield (% of H.W. Check) (Dapog transplanted rice [11]; 14 DAT, 1.5 kg/ha): 89% | Yield (% of H.W. Check) (Dapog transplanted rice [11]; 14 DAT, 3.0 kg/ha): 93%
